According to PMC7370300, “Deciphering the Binding of Salicylic Acid to Arabidopsis thaliana Chloroplastic GAPDH-A1” (International Journal of Molecular Sciences, 2020):

Assays:
Assay type in all cases: binding
[1] = target: GAPA1 (chloroplastic glyceraldehyde 3-phosphate dehydrogenase A1) (Arabidopsis thaliana, UniProt P25856, N94G); assay: SPR on immobilised 3-AESA, […] protein; response diminished by […] versus WT
[2] = target: GAPA1 (chloroplastic glyceraldehyde 3-phosphate dehydrogenase A1) (Arabidopsis thaliana, UniProt P25856, W378L); assay: SPR on immobilised 3-AESA
[3] = target: T1, GAPA1 (chloroplastic glyceraldehyde 3-phosphate dehydrogenase A1) (Arabidopsis thaliana, UniProt P25856); assay: SPR (Biacore […]), 3-AESA immobilised via its amino group on CM5 chip, […] Langmuir fit
T1 sequence (P25856 60-396): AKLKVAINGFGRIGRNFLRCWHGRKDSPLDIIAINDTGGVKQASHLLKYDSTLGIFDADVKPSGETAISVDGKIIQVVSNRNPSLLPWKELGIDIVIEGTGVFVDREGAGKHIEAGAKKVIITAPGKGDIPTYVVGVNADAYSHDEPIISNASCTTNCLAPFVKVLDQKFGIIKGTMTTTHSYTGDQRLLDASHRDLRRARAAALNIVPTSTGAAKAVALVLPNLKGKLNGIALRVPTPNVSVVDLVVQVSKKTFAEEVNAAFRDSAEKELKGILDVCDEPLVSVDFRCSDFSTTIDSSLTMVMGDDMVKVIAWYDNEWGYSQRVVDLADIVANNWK

[4] = target: T1, GAPA1 (chloroplastic glyceraldehyde 3-phosphate dehydrogenase A1); assay: SPR competition with immobilised 3-AESA; also inhibits GAPDH activity of purified GAPA1 ([…] at […])
[5] = target: T1, GAPA1 (chloroplastic glyceraldehyde 3-phosphate dehydrogenase A1); assay: SPR competition with immobilised 3-AESA (competition seen from […] NADH)

Chain of GAPA1 (chloroplastic glyceraldehyde 3-phosphate dehydrogenase A1) (Arabidopsis thaliana, UniProt P25856, N94G) (P25856 60-396 N94G): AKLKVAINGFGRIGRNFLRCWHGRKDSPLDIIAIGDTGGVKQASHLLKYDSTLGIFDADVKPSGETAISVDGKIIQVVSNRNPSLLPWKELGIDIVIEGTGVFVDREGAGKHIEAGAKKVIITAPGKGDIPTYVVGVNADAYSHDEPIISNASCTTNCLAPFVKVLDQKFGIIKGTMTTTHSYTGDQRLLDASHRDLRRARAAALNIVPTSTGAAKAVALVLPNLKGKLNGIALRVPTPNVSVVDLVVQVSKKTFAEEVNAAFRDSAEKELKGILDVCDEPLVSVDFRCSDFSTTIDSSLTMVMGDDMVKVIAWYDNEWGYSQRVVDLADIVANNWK
Chain of GAPA1 (chloroplastic glyceraldehyde 3-phosphate dehydrogenase A1) (Arabidopsis thaliana, UniProt P25856, W378L) (P25856 60-396 W378L): as the sequence (P25856 60-396 N94G) above, with G35N, W319L counted along it

Structure (SMILES): NCCc1cccc(C(=O)O)c1O [3-AESA, 3-aminoethyl salicylic acid]
- SPR on immobilised 3-AESA, 50 nM protein; response diminished by 66% versus WT [1]: No complete loss of ability to bind 3-AESA was observed in these mutated proteins.
- SPR on immobilised 3-AESA [2]: the ability of GAPA1 Trp319Leu to bind 3-AESA was not affected
- Kd [3]: 16.7 ± 5.7 nM

Structure (SMILES): O=C(O)c1ccccc1O [SA, 2-hydroxybenzoic acid]
- SPR competition with immobilised 3-AESA; also inhibits GAPDH activity of purifie [4]: GAPA1 association with immobilised 3-AESA was inhibited by the presence of SA in a running buffer in a concentration-dependent manner

Structure (SMILES): NC(=O)C1=CN([C@@H]2O[C@H](COP(=O)(O)OP(=O)(O)OC[C@H]3O[C@@H](n4cnc5c(N)ncnc54)[C@H](O)[C@@H]3O)[C@@H](O)[C@H]2O)C=CC1 [NADH]
- SPR competition with immobilised 3-AESA (competition seen from 2 μM NADH) [5]: pre-incubation of GAPA1 on ice with NADH reduced the level of GAPA1 association with immobilised 3-AESA
